The values that follow come from patent US8946413B2 (Pfizer Inc., priority 2008, dated 2015).

Where two headings read alike, the source gives them in different places.

In the test the target is T1, CCR2 (Homo sapiens, UniProt P41597).
T1 construct: (leukophoresis pack); host or cells: human peripheral blood mononuclear cells (PBMCs) from a normal human leukophoresis pack
As to the kind of experiment: hCCR2 (125-I hMCP-1) small molecule binding assay on human PBMCs. As to conditions: 125I-MCP-1, human PBMCs. Summed up:
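Ficoll-isolated human PBMCs pre-incubated 30 min or 1 h with compound at 0.333 μM final (0.67% DMSO), then incubated 30 min at room temperature with 150 pM 125I-hMCP-1 in RPMI/0.1% BSA/20 mM HEPES. Filter-bound radioactivity counted by gamma counter. 100% inhibition defined with 1 μM hMCP-1; IC50 plates run n=2.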

The mark [1] stands for this setting: 30 min preincubation, read-out: IC50 (nM) 30 min preinc.
Where [2] appears, read: 1 hr preincubation, read-out: IC50 (nM) 1 hr preinc.

T1 sequence (P41597 whole entry): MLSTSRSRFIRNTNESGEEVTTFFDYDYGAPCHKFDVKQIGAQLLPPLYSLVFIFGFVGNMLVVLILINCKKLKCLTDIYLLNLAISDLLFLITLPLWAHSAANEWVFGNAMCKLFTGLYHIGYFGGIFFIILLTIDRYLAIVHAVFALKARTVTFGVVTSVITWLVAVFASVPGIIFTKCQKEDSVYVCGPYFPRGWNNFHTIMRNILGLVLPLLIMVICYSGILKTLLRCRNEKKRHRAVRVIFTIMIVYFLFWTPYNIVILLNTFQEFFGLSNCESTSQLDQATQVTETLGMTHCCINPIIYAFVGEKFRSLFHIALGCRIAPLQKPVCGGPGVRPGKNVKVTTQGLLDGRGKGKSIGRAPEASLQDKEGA

Regarding `CO[C@@H]1COCC[C@@H]1N[C@@H]1CC[C@@](C(=O)N2C[C@@H]3C[C@H]2CN3c2nccc(C(F)(F)F)n2)(C(C)C)C1` [Example 12, 1,5-anhydro-2,3-dideoxy-3-{[(1R,3S)-3-isopropyl-3-({(1S,4S)-5-[4-(trifluoromethyl)pyrimidin-2-yl]-2,5-diazabicyclo[2.2.1]hept-2-yl}carbonyl)cyclopentyl]amino}-4-O-methyl-D-erythro-pentitol], the IC50 under setting [1] was 11.1 nM and the half-maximal inhibitory concentration (IC50) under setting [2] was found to be 1.7 nM.
With `CO[C@@H]1COCC[C@@H]1N[C@@H]1CC[C@@](C(=O)N2C[C@@H]3C[C@H]2CN3c2cc(C(F)(F)F)cnn2)(C(C)C)C1` [Example 18, 1,5-anhydro-2,3-dideoxy-3-{[(1R,3S)-3-isopropyl-3-({(1S,4S)-5-[5-(trifluoromethyl)pyridazin-3-yl]-2,5-diazabicyclo[2.2.1]hept-2-yl}carbonyl)cyclopentyl]amino}-4-O-methyl-D-erythro-pentitol], the IC50 by setting is: under setting [1], 37.6 nM; under setting [2], 8.5 nM.
As for `CO[C@@H]1COCC[C@@H]1N[C@@H]1CC[C@](CC(F)F)(C(=O)N2C[C@@H]3C[C@H]2CN3c2cc(C(F)(F)F)ccn2)C1` [Example 25, 1,5-anhydro-2,3-dideoxy-3-{[(1R,3S)-3-(2,2-difluoroethyl)-3-({(1S,4S)-5-[4-(trifluoromethyl)pyridin-2-yl]-2,5-diazabicyclo[2.2.1]hept-2-yl}carbonyl)cyclopentyl]amino}-4-O-methyl-D-erythro-pentitol], the IC50 came out at 6.58 nM under setting [1] and 0.93 nM under setting [2].
As to `CO[C@@H]1COCC[C@@H]1N[C@@H]1C=C[C@@](C(=O)N2C[C@@H]3C[C@H]2CN3c2cncc(C(F)(F)F)n2)(C(C)C)C1` [Example 43, 1,5-anhydro-2,3-dideoxy-3-{[(1S,4S)-4-isopropyll-4-({(1S,4S)-5-[6-(trifluoromethyl)pyrazin-2-yl]-2,5-diazabicyclo[2.2.1]hept-2-yl}carbonyl)cyclopent-2-en-1-yl]amino}-4-O-methyl-D-erythro-pentitol], the half-maximal inhibitory concentration (IC50) under setting [1] turned out to be 47.3 nM.
Turning to `CO[C@@H]1COCC[C@@H]1N[C@@H]1CC[C@@](C(=O)N2C[C@@H]3C[C@H]2CN3c2cc(C(F)(F)F)cnn2)(C(C)(C)O)C1` [Example 55, 1,5-anhydro-2,3-dideoxy-3-{[3-(1-hydroxy-1-methylethyl)-3-({5-[5-(trifluoromethyl)pyridazin-3-yl]-2,5-diazabicyclo[2.2.1]hept-2-yl}carbonyl)cyclopentyl]amino}-4-O-methylpentitol], under setting [1], the IC50 was 28.3 nM.
For the compound `CO[C@@H]1COCC[C@@H]1N[C@@H]1CC[C@@](C(=O)N2C[C@@H]3C[C@H]2CN3c2cncc(C(F)(F)F)n2)(C2(O)CCC2)C1` [Example 50, 1,5-anhydro-2,3-dideoxy-3-{[(1R,3S)-3-(1-hydroxycyclobutyl)-3-({(1S,4S)-5-[6-(trifluoromethyl)pyrazin-2-yl]-2,5-diazabicyclo[2.2.1]hept-2-yl}carbonyl)cyclopentyl]amino}-4-O-methyl-D-erythro-pentitol], the IC50 under setting [1] turned out to be 7.14 nM.
`CO[C@@H]1COCC[C@@H]1N[C@@H]1CC[C@](CC(F)(F)F)(C(=O)N2C[C@@H]3C[C@H]2CN3c2cc(C(F)(F)F)ccn2)C1` [Example 33, 1,5-anhydro-2,3-dideoxy-4-O-methyl-3-{[(1R,3S)-3-(2,2,2-trifluoroethyl)-3-({(1S,4S)-5-[4-(trifluoromethyl)pyridin-2-yl]-2,5-diazabicyclo[2.2.1]hept-2-yl}carbonyl)cyclopentyl]amino}-D-erythro-pentitol]: the IC50 worked out at 57.3 nM under setting [1] and 11.7 nM under setting [2].
Consider `CO[C@@H]1COCC[C@@H]1N[C@@H]1CC[C@](CC(F)F)(C(=O)N2C[C@@H]3C[C@H]2CN3c2ccnc(C(F)(F)F)n2)C1` [Example 30, 1,5-anhydro-2,3-dideoxy-3-{[(1R,3S)-3-(2,2-difluoroethyl)-3-({(1S,4S)-5-[2-(trifluoromethyl)pyrimidin-4-yl]-2,5-diazabicyclo[2.2.1]hept-2-yl}carbonyl)cyclopentyl]amino}-4-O-methyl-D-erythro-pentitol], for which the IC50 is, setting by setting: under setting [1], 32.9 nM; under setting [2], 11.8 nM.
Regarding `CO[C@@H]1COCC[C@@H]1N[C@@H]1CC[C@@](C(=O)N2C[C@@H]3[C@H](F)[C@H]2CN3c2cc(C(F)(F)F)ccn2)(C(C)C)C1` [Example 67, ((1R,4R,7S)-7-(fluoro)-5-(4-(trifluoromethyl)pyridin-2-yl)-2,5-diaza-bicyclo[2.2.1]heptan-2-yl)((1S,3R)-1-isopropyl-3-((3S,4S)-3-methoxy-tetrahydro-2H-pyran-4-ylamino)cyclopentyl)methanone], under setting [1], the IC50 turned out to be 3.4 nM.
Still for that read-out and setting: the value for `CC[C@]1(C(=O)N2C[C@@H]3C[C@H]2CN3c2cccc(C(F)(F)F)n2)CC[C@@H](N[C@H]2CCOC[C@H]2OC)C1` [Example 6, 1,5-anhydro-2,3-dideoxy-3-{[(1R,3S)-3-ethyl-3-({(1S,4S)-5-[6-(trifluoromethyl)pyridin-2-yl]-2,5-diazabicyclo[2.2.1]hept-2-yl}carbonyl)cyclopentyl]amino}-4-O-methyl-D-erythro-pentitol] was 1.73 nM; that for `CO[C@@H]1COCC[C@@H]1N[C@@H]1CC[C@@](C(=O)N2C[C@@H]3C[C@H]2CN3c2cc(C(F)(F)F)ncn2)(C2(O)CCC2)C1` [Example 49, 1,5-anhydro-2,3-dideoxy-3-{[(1R,3S)-3-(1-hydroxycyclobutyl)-3-({(1S,4S)-5-[6-(trifluoromethyl)pyrimidin-4-yl]-2,5-diazabicyclo[2.2.1]hept-2-yl}carbonyl)cyclopentyl]amino}-4-O-methyl-D-erythro-pentitol] was 35.8 nM; that for `CO[C@@H]1COCC[C@@H]1N[C@@H]1CC[C@@](C(=O)N2C[C@@H]3C[C@H]2CN3c2cccc(C(F)(F)F)n2)(C(C)(C)O)C1` [Example 57, 1,5-anhydro-2,3-dideoxy-3-{[3-(1-hydroxy-1-methylethyl)-3-({5-[6-(trifluoromethyl)pyridin-2-yl]-2,5-diazabicyclo[2.2.1]hept-2-yl}carbonyl)cyclopentyl]amino}-4-O-methylpentitol] was 4.34 nM.
As to `CO[C@@H]1COCC[C@@H]1N[C@@H]1CC[C@@](C(=O)N2C[C@@H]3C[C@H]2CN3c2ccnc(C(F)(F)F)n2)(C(C)C)C1` [Example 15, 1,5-anhydro-2,3-dideoxy-3-{[(1R,3S)-3-isopropyl-3-({(1S,4S)-5-[2-(trifluoromethyl)pyrimidin-4-yl]-2,5-diazabicyclo[2.2.1]hept-2-yl}carbonyl)cyclopentyl]amino}-4-O-methyl-D-erythro-pentitol], the half-maximal inhibitory concentration (IC50) runs as follows: under setting [1], 40 nM; under setting [2], 4.6 nM.
As to `CC[C@]1(C(=O)N2C[C@@H]3C[C@H]2CN3c2nccc(C(F)(F)F)c2F)CC[C@@H](N[C@H]2CCOC[C@H]2OC)C1` [Example 8, 1,5-anhydro-2,3-dideoxy-3-{[(1R,3S)-3-ethyl-3-({(1S,4S)-5-[3-fluoro-4-(trifluoromethyl)pyridin-2-yl]-2,5-diazabicyclo[2.2.1]hept-2-yl}carbonyl)cyclopentyl]amino}-4-O-methyl-D-erythro-pentitol], the 50% inhibitory concentration (IC50) under setting [1] came to 10.7 nM.
With `CO[C@@H]1COCC[C@@H]1N[C@@H]1CC[C@](CC(F)F)(C(=O)N2C[C@@H]3C[C@H]2CN3c2nccc(C(F)(F)F)n2)C1` [Example 27, 1,5-anhydro-2,3-dideoxy-3-{[(1R,3S)-3-(2,2-difluoroethyl)-3-({(1S,4S)-5-[4-(trifluoromethyl)pyrimidin-2-yl]-2,5-diazabicyclo[2.2.1]hept-2-yl}carbonyl)cyclopentyl]amino}-4-O-methyl-D-erythro-pentitol], the IC50 came to 16.2 nM under setting [1] and 2.04 nM under setting [2].
Consider `CO[C@@H]1COCC[C@@H]1N[C@@H]1CC[C@@](C(=O)N2C[C@@H]3C[C@H]2CN3c2ccnc(C(F)(F)F)c2)(C2(O)CCC2)C1` [Example 51, 1,5-anhydro-2,3-dideoxy-3-{[(1R,3S)-3-(1-hydroxycyclobutyl)-3-({(1S,4S)-5-[2-(trifluoromethyl)pyridin-4-yl]-2,5-diazabicyclo[2.2.1]hept-2-yl}carbonyl)cyclopentyl]amino}-4-O-methyl-D-erythro-pentitol], for which the half-inhibitory concentration (IC50) under setting [1] worked out at 22.8 nM.
The same measure, in the same setting: the value for `CO[C@@H]1COCC[C@@H]1N[C@@H]1CC[C@@](C(=O)N2C[C@@H]3C[C@H]2CN3c2cc(C(F)(F)F)ccn2)(C(O)C(F)(F)F)C1` (stereo partly drawn) [Example 62, ((1S,3R)-3-((3S,4S)-3-methoxy-tetrahydro-2H-pyran-4-ylamino)-1-(2,2,2-trifluoro-1-hydroxyethyl)cyclopentyl)((1S,4S)-5-(4-(trifluoromethyl)pyridin-2-yl)-2,5-diaza-bicyclo[2.2.1]heptan-2-yl)methanone] was 1.3 nM.
For `CO[C@@H]1COCC[C@@H]1N[C@@H]1CC[C@@](C(=O)N2C[C@@H]3C[C@H]2CN3c2cc(C(F)(F)F)ccn2)(C(C)C)C1` [Example 11, 1,5-anhydro-2,3-dideoxy-3-{[(1R,3S)-3-isopropyl-3-({(1S,4S)-5-[4-(trifluoromethyl)pyridin-2-yl]-2,5-diazabicyclo[2.2.1]hept-2-yl}carbonyl)cyclopentyl]amino}-4-O-methyl-D-erythro-pentitol], the half-inhibitory concentration (IC50) by setting is: under setting [1], 6.72 nM; under setting [2], 2.44 nM.
With `CO[C@@H]1COCC[C@@H]1N[C@@H]1CC[C@@](C(=O)N2C[C@@H]3C[C@H]2CN3c2cc(C(F)(F)F)ncn2)(C(C)(C)O)C1` [Example 53, 1,5-anhydro-2,3-dideoxy-3-{[3-(1-hydroxy-1-methylethyl)-3-({5-[6-(trifluoromethyl)pyrimidin-4-yl]-2,5-diazabicyclo[2.2.1]hept-2-yl}carbonyl)cyclopentyl]amino}-4-O-methylpentitol], the half-inhibitory concentration (IC50) under setting [1] was 27.6 nM.
`CO[C@@H]1COCC[C@@H]1N[C@@H]1CC[C@](CC(F)(F)F)(C(=O)N2C[C@@H]3C[C@H]2CN3c2cncc(C(F)(F)F)n2)C1` [Example 37]: under setting [2], the IC50 was found to be 3.68 nM.
